Read-outs that look alike come from different tables or passages of the source.
Molecular target: T1, Recombinant human renin (Homo sapiens, UniProt P00797)
T1 sequence (P00797 67-406): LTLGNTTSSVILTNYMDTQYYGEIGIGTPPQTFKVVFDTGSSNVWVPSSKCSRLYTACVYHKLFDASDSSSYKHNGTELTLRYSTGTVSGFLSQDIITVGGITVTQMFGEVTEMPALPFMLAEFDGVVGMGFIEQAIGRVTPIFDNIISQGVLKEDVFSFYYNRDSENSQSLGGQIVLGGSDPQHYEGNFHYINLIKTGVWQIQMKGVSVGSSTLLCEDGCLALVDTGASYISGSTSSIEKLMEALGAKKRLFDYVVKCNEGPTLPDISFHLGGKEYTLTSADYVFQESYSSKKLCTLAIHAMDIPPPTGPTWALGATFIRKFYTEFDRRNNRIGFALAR
Experiment: Inhibitory activity against human renin (fluorogenic peptide substrate)
Type: biochemical
Conditions: 37° C. for 1 hour
Protocol: Inhibitory Activity Against Human Renin
A substrate of synthetic peptide (Nma-KHPFH LVIHK(Dnp)-NH2) and test compound were mixed, and fluorescence intensity was assayed using a fluorophotometer before starting an enzymatic reaction (exciting wavelength: 340 nm, measuring wavelength: 460 nm). Recombinant human renin was added and the mixture was incubated at 37° C. for 1 hour, and the fluorescence intensity was measured after the reaction using a fluorophotometer (exciting wavelength: 340 nm, measuring wavelength: 460 nm).

[1] = 50% inhibitory concentration (IC50) against human renin

IC50 [1] [nM]	IC50 (read-out: IC50) [nM]	SMILES
0.2	–	COC(=O)NCC(F)Cn1nc([C@@H](C)N(C(=O)[C@H]2CNCCO2)C2CC2)cc1-c1ccccc1 (some centres unmarked) [Example 198]
5.3	–	COC(=O)NCCCc1nc([C@@H](C)N(C(=O)[C@H]2CNCCO2)C2CC2)cnc1O[C@@H]1CCOC1 [Example 433]
0.5	–	COC(=O)NCCCc1cc([C@@H](C)N(C(=O)[C@H]2CNCCO2)C2CC2)cc2cccnc12 [Example 145]
0.7	–	COC(=O)NCCCc1nc([C@@H](C)N(C(=O)[C@H]2CNCCO2)C2CC2)cn1-c1ccccc1 [Example 182]
0.7	–	CCc1nc([C@@H](C)N(C(=O)[C@H]2CNC[C@@H](COC)O2)C2CC2)cc2c1ccn2CCCOC [Example 196]
0.3	–	COC(=O)NCCCc1cc([C@@H](C)N(C(=O)[C@H]2CNCCO2)C2CC2)sc1-c1cccc(C)n1 [Example 226]
0.3	–	COC(=O)NCCCn1cc([C@H](C)N(C(=O)[C@H]2CNC[C@@H](C)O2)C2CC2)nc1C1CCCCC1 [Example 333]
–	1.5	COCCCN1CC(C)(C)c2ccc([C@@H](C)N(C(=O)[C@H]3CNCCO3)C3CC3)cc21 [Example 46]
–	0.3	COC[C@@H]1CNC[C@H](C(=O)N(C2CC2)[C@H](C)c2cc(CCCNC(=O)OC)nc(OC)c2)O1 [Example 2, methyl (3-{4-[(1R)-1-(cyclopropyl{[(2R,6S)-6-(methoxymethyl)morpholin-2-yl]carbonyl}amino)ethyl]-6-methoxypyridin-2-yl}propyl)carbamate]
3.1	–	COC(=O)NCCCn1nc([C@@H](C)N(C(=O)[C@H]2CNC[C@@H](C(=O)N(C)C)O2)C2CC2)c2ccc(C)nc21 [Example 256]
0.3	–	COC(=O)NCCCn1nc([C@@H](C)N(C(=O)[C@H]2CNCCO2)C2CC2)cc1-c1ncccc1F [Example 185]
3.5	–	COC(=O)NC/C=C/c1cc([C@@H](C)N(C(=O)[C@H]2CNCCO2)C2CC2)nn1-c1ccccc1 [Example 357]
–	0.6	COC(=O)NCCCn1nc([C@@H](C)N(C(=O)[C@H]2CNCCO2)C2CC2)c2cccc(F)c21 [Example 76]
0.9	–	COC(=O)NCCCn1cc([C@@H](C)N(C(=O)[C@H]2CN[C@@H](COCc3ccccc3)CO2)C2CC2)nc1C1CCOCC1 [Example 299]
0.5	–	COC[C@H]1CO[C@@H](C(=O)N(C2CC2)[C@H](C)c2cn(CCCNC(=O)OC)c(-c3ccc(F)cc3)n2)CN1 [Example 279]
1	–	COC(=O)NCCCc1cc([C@@H](C)N(C(=O)[C@H]2CNCCO2)C2CC2)nc2ccc(C#N)cc12 [Example 146]
–	0.3	COC(=O)NCCCn1cc([C@@H](C)N(C(=O)[C@H]2CNCCO2)C2CC2)nc1C1CCCCC1 [Example 6, methyl (3-{2-cyclohexyl-4-[(1R)-1-{cyclopropyl[(2R)-morpholin-2-ylcarbonyl]amino}ethyl]-1H-imidazol-1-yl}propyl)carbamate]
0.5	–	CCOc1cc([C@@H](C)N(C(=O)[C@H]2CNCCO2)C2CC2)cc(CCCNC(=O)OC)n1 [Example 237]
5	–	COC(=O)NCCCc1nc([C@@H](C)N(C(=O)[C@H]2CNCCO2)C2CC2)cnc1O[C@H]1CCOC1 [Example 424]
6.1	–	COC(=O)NCCCn1cc(C(C)N(C(=O)[C@H]2CNCCO2)C2CC2)c2ccnc(C)c21 (some centres unmarked) [Example 138]
0.3	–	COC[C@@H]1CNC[C@H](C(=O)N(C2CC2)[C@@H](C)c2nn(CCCNC(=O)OC)c(C3CCOCC3)c2F)O1 [Example 330]

IC50 [1] [nM]	IC50 (read-out: IC50) [nM]	SMILES
1	–	COC(=O)NCCCn1nc([C@@H](C)N(C(=O)[C@H]2CNCCO2)C2CC2)cc1-c1ccc(F)cn1 [Example 177]
0.4	–	COC(=O)NCCCn1cc([C@H](C)N(C(=O)[C@H]2CNC[C@@H](COCc3ccccc3)O2)C2CC2)nc1C1CCOCC1 [Example 339]
0.7	–	CCc1nc([C@@H](C)N(C(=O)[C@H]2CNC[C@@H](C)O2)C2CC2)cc2c1ncn2CCCOC [Example 392]
0.5	–	COC(=O)NCCCn1nc([C@@H](C)N(C(=O)[C@H]2CN[C@@H](C)CO2)C2CC2)c2ccc(C)nc21 [Example 249]
–	7.3	COC(=O)NCCn1nc(C)c2ccc([C@@H](C)N(C(=O)[C@H]3CNCCO3)C3CC3)cc21 [Example 9]
–	1.1	COCCCCn1cc([C@@H](C)N(C(=O)[C@H]2CNCCO2)C2CC2)c2nccc(CCOC)c21 [Example 86]
0.7	–	COC(=O)NCCCn1nc([C@@H](C)N(C(=O)[C@H]2CNCCO2)C2CC2)cc1C(C)(C)C [Example 191]
3	–	COC[C@H]1CO[C@@H](C(=O)N(C2CC2)[C@H](C)c2cc(CCCNC(=O)OC)nc(OC)c2)CN1 [Example 271]
0.4	–	COC(=O)NCCCn1nc([C@@H](C)N(C(=O)[C@H]2CNCCO2)C2CC2)cc1-c1ncc(C)cc1F [Example 223]
1.5	–	COC(=O)NCCCc1cc([C@@H](C)N(C(=O)[C@H]2CNCCO2)C2CC2)nc2cc(F)c(F)cc12 [Example 143]
–	1.4	COCCCn1cc(C(C)C)c2cnc([C@@H](C)N(C(=O)[C@H]3CNCCO3)C3CC3)nc21 [Example 73]
–	1.3	COC(=O)NCCCn1nc([C@@H](C)N(C(=O)[C@H]2CNCCO2)C2CC2)c2ccc(CO)cc21 [Example 63]
0.4	–	COC(=O)NCCCn1nc([C@@H](C)N(C(=O)[C@H]2CNC[C@@H](C(=O)NCc3ccccc3)O2)C2CC2)c2ccc(C)nc21 [Example 253]
–	3.4	CCc1cc([C@@H](C)N(C(=O)[C@H]2CNCCO2)C2CC2)cc(OCCNC(=O)OC)n1 [Example 109]
0.6	–	COC[C@@H]1CNC[C@H](C(=O)N(C2CC2)[C@H](C)c2cc(CCCNC(=O)OC)nc(C(F)(F)F)c2)O1 [Example 324]
1	–	COC(=O)NCCN1CC(C)(C)c2ccc([C@@H](C)N(C(=O)[C@H]3CNCCO3)C3CC3)cc21 [Example 151]
1.5	–	COC(=O)NCCCc1cc([C@@H](C)N(C(=O)[C@H]2CNC[C@@H](CF)O2)C2CC2)nn1-c1ccccc1 [Example 369]
1.3	–	COC(=O)NCCCc1nc(OC)cc([C@@H](C)N(C(=O)[C@H]2CNC[C@@H](C)O2)C2CC2)n1 [Example 375]
7.6	–	COC(=O)NCCCc1nc(C(C)N(C(=O)[C@H]2CNCCO2)C2CC2)nn1-c1cccc(Cl)c1 (some centres unmarked) [Example 360]
0.5	–	COC(=O)NCCCc1cc([C@@H](C)N(C(=O)[C@H]2CNCCO2)C2CC2)sc1-c1ccccc1C(=O)OC [Example 268]
8.1	–	COC(=O)NCCCc1sc([C@@H](C)N(C(=O)[C@H]2CNCCO2)C2CC2)cc1-c1ccc(F)cc1 [Example 428]

IC50 [1] [nM]	IC50 (read-out: IC50) [nM]	SMILES
–	0.7	COC(=O)NCCCn1nc([C@@H](C)N(C(=O)[C@H]2CNCCO2)C2CC2)c2ccc(OC)cc21 [Example 41]
0.3	–	COC(=O)NCCCn1nc([C@@H](C)N(C(=O)[C@H]2CNCCO2)C2CC2)c2c1C(C)(C)CC2 [Example 233]
–	5.7	COCCCCn1cc([C@@H](C)N(C(=O)[C@H]2CNCCO2)C2CC2)c2nccnc21 [Example 80]
0.4	–	COC(=O)NCC(F)Cn1nc([C@@H](C)N(C(=O)[C@H]2CNCCO2)C2CC2)cc1-c1ccccc1 (some centres unmarked) [Example 193]
0.4	–	COC(=O)NCCCc1cc([C@@H](C)N(C(=O)[C@H]2CNCCO2)C2CC2)sc1-c1ccccc1-c1cc(O)no1 [Example 281]
0.8	–	COCCCCn1cc([C@@H](C)N(C(=O)[C@H]2CNCCO2)C2CC2)nc1-c1ccccc1 [Example 160]
0.5	–	COC(=O)NCCCc1cc([C@@H](C)N(C(=O)[C@H]2CNCCO2)C2CC2)nc2ccc(F)cc12 [Example 142]
2	–	COC(=O)NCCCc1sc(C(C)N(C(=O)[C@H]2CNCCO2)C2CC2)cc1-c1ccnn1C (some centres unmarked) [Example 429]
0.6	–	COC(=O)NCCCc1nc([C@@H](C)N(C(=O)[C@H]2CNCCO2)C2CC2)sc1-c1ccnn1C [Example 415]
0.5	–	COC(=O)NCCCn1cc([C@@H](C)N(C(=O)[C@H]2CNCCO2)C2CC2)nc1C(C)(C)C [Example 215]
–	2.1	COCCCCn1cc([C@@H](C)N(C(=O)[C@H]2CNCCO2)C2CC2)c2cnc(C)nc21 [Example 103]
–	4.8	COC(=O)NCCCc1cc(OC)cc([C@@H](C)N(C(=O)[C@H]2CNCCO2)C2CC2)n1 [Example 87]
5.1	–	CCOc1ncc(C(C)N(C(=O)[C@H]2CNC[C@@H](COC)O2)C2CC2)nc1CCCNC(=O)OC (some centres unmarked) [Example 398]
0.2	–	COC(=O)NCCCc1cc([C@@H](C)N(C(=O)[C@H]2CNCCO2)C2CC2)sc1-c1ncccc1C [Example 236]
0.8	–	COC(=O)NCCCc1cc([C@@H](C)N(C(=O)[C@H]2CNCCO2)C2CC2)sc1-c1ccccc1C(=O)NS(C)(=O)=O [Example 287]
0.2	–	COC(=O)NCC(F)Cn1nc([C@@H](C)N(C(=O)[C@H]2CNCCO2)C2CC2)cc1-c1ccccc1 (some centres unmarked) [Example 199]
0.6	–	COC(=O)NCCCn1cc([C@@H](C)N(C(=O)[C@H]2CNCCO2)C2CC2)c2ncc(C(C)C)nc21 [Example 162]
0.5	–	COC(=O)NCCCc1cc([C@@H](C)N(C(=O)[C@H]2CNCCO2)C2CC2)nn1-c1ccccc1F [Example 211]
5.6	–	COC(=O)NCCCc1cc([C@H](C)N(C(=O)[C@H]2CNC[C@@H](CN(C)C)O2)C2CC2)cc(OC)n1 [Example 321]

SMILES	IC50 [1] [nM]	IC50 (read-out: IC50) [nM]
CCc1nc([C@H](C)N(C(=O)[C@H]2CN[C@@H](C)CO2)C2CC2)cc2c1ccn2CCCOC [Example 397]	1.3	–

Reference: US9556159B2, “Renin inhibitor” (MITSUBISHI TANABE PHARMA CORPORATION, priority 2012, dated 2017)
